Calls of active or inactive are those of the source. No cut-off for these calls is given here.
Experiments:
H9 = experiment: Cytotoxicity against human H9 cells; format: cell-based
[1] = test system: Human immunodeficiency virus 1; experiment: Antiviral activity against HIV1 infected in human H9 cells assessed as effect on virus-induced cytopathic effect by tetrazolium/formazan assay; format: functional, organism-based; details: for EC50: Human immunodeficiency virus 1, H9
[2] = Therapeutic index, ratio of IC50 for human H9 cells to EC50 for HIV1; format: cell-based; details: read-out: Ratio IC50/EC50

Compound	IC50 (H9) [µM]	Activity [1]	selectivity ratio [2]	EC50 [1] [µM]
C/C=C(\C)C(=O)c1c(OC)cc(OC)c2c(CCC)cc(=O)oc12	1	inactive		
CCCc1cc(=O)oc2c3c(c4c(c12)OC(C)(C)C=C4)O[C@@H](C)[C@@H](C)[C@@H]3O [CALANOLIDE F]	12.7		4.5	2.84
CCCC1CC(=O)Oc2c(C(=O)C(C)C(C)O)c(O)c3c(c21)OC(C)(C)C=C3 (centres undefined) [CALANOLIDE E2]	2.5	inactive		
CC1CC(=O)Oc2c(C(=O)C(C)C(C)O)c(O)c3c(c21)OC(C)(C)C=C3 (centres undefined) [CORDATOLIDE E]	14	inactive		
CCCc1cc(=O)oc2c3c(c4c(c12)OC(C)(C)C=C4)O[C@@H](C)[C@H](C)[C@@H]3O [COSTATOLIDE]	9.8		44.5	0.22
Cc1cc(=O)oc2c3c(c4c(c12)O[C@@H](C)[C@@H](C)[C@H]4O)OC(C)(C)C=C3 [PSEUDOCARDATOLIDE C]	2.6	inactive		
